According to the supplement of paper PMC10627819:

Legend:
S. pneumoniae D39V [1] = test: Bliss interaction score (quartile over a dose matrix) (fitness difference); higher = more antagonism (negative = synergy)
Method in brief: (§1)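 Combination data were used to infer fitness under each single drug. Fitness is the OD595 at entry into stationary phase divided by the robust mean of the plate's no-drug wells, with a cap of 1. The Bliss score is the observed minus the expected product fitness, summarised by quartiles over technical, biological and donor/recipient replicates.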

S. aureus Newman = test: as above
Method in brief: as §1

S. aureus DSM 20231 [2] = test: as above
Method in brief: as §1

B. subtilis 168 [3] = test: as above
Method in brief: as §1

S. aureus DSM 20231 [4] = test: fitness (endpoint OD595 vs no drug) (fraction); higher = more growth
Method in brief: (§2)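 In 384-well plates at 37 °C, cultures began at OD595 0.01 in 30 µl, with 55 µl used for S. pneumoniae. OD595 readings every 30 min for 14 h were corrected by the first reading. Fitness divides the stationary-phase transition optical density by the robust mean of no-drug control wells. The result is capped at 1.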

B. subtilis 168 [5] = test: as above
Method in brief: as §2

S. pneumoniae D39V [6] = test: as above
Method in brief: as §2
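Wherever Bliss interaction score (quartile over a dose matrix) is given: first quartile when negative (synergy) and third quartile when positive (antagonism).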

CCCCCCCCCC(=O)N[C@@H](Cc1c[nH]c2ccccc12)C(=O)N[C@H](CC(N)=O)C(=O)N[C@@H](CC(=O)O)C(=O)N[C@@H]1C(=O)NCC(=O)N[C@@H](CCCN)C(=O)N[C@@H](CC(=O)O)C(=O)N[C@H](C)C(=O)N[C@@H](CC(=O)O)C(=O)NCC(=O)N[C@H](CO)C(=O)N[C@@H]([C@H](C)CC(=O)O)C(=O)N[C@@H](CC(=O)c2ccccc2N)C(=O)O[C@@H]1C [Daptomycin] + COc1cc(Cc2cnc(N)nc2N)cc(OC)c1OC [Trimethoprim]
Conditions | Bliss interaction score
B. subtilis 168 [3] | 0.0723
S. aureus DSM 20231 [2] | -0.0443
S. aureus Newman | 0.0713
S. pneumoniae D39V [1] | -0.192

fitness
Conditions | first compound 0.125 µg/mL | first compound 0.25 µg/mL | first compound 0.5 µg/mL | first compound 1 µg/mL | first compound 2 µg/mL
B. subtilis 168 [5], partner 0.125 µg/mL | – | 0.692 | 0.659 | – | –
B. subtilis 168 [5], partner 0.25 µg/mL | – | – | 0.552 | – | –
B. subtilis 168 [5], partner 0.5 µg/mL | 0.454 | – | 0.446 | – | –
S. aureus DSM 20231 [4], partner 0.125 µg/mL | – | – | 0.788 | 0.745 | 0.839
S. aureus DSM 20231 [4], partner 0.25 µg/mL | 0.573 | 0.553 | 0.645 | 0.657 | 0.695
S. aureus DSM 20231 [4], partner 0.5 µg/mL | 0.128 | 0.0962 | – | 0.304 | 0.37
S. aureus DSM 20231 [4], partner 1 µg/mL | 0.0396 | 0.0212 | 0.0174 | – | –

fitness, B. subtilis 168 [5], one replicate
Conditions | partner 0.1 µg/mL | partner 0.125 µg/mL | partner 0.2 µg/mL | partner 0.25 µg/mL | partner 0.4 µg/mL | partner 0.5 µg/mL | partner 1 µg/mL | partner 2 µg/mL
first compound 0.125 µg/mL | 0.908 | 0.711 | 0.755 | – | 0.533 | – | 0.328 | 0.251
first compound 0.25 µg/mL | ≥ 1 | – | 0.756 | – | 0.555 | – | 0.226 | 0.161
first compound 0.5 µg/mL | 0.918 | – | 0.657 | – | 0.512 | – | 0.144 | 0.149
first compound 1 µg/mL | – | 0.35 | – | 0.22 | – | 0.115 | – | –

CN(C)C(=O)C(CCN1CCC(O)(c2ccc(Cl)cc2)CC1)(c1ccccc1)c1ccccc1 [Loperamide] + CN[C@@H]1[C@H](O[C@H]2[C@H](O[C@H]3[C@H](O)[C@@H](O)[C@H](N=C(N)N)[C@@H](O)[C@@H]3N=C(N)N)O[C@@H](C)[C@]2(O)C=O)O[C@@H](CO)[C@H](O)[C@H]1O [Streptomycin]
Conditions | Bliss interaction score
B. subtilis 168 [3] | -0.0818
S. aureus DSM 20231 [2] | -0.236
S. aureus Newman | 0.0869
S. pneumoniae D39V [1] | 0.125

fitness
Conditions | partner 2 µg/mL | partner 4 µg/mL | partner 8 µg/mL
B. subtilis 168 [5], first compound 25 µg/mL | 0.643 | 0.106 | 0.0172
B. subtilis 168 [5], first compound 50 µg/mL | 0.0768 | 0.0399 | 0.019
B. subtilis 168 [5], first compound 100 µg/mL | 0.0865 | 0.0369 | 0.0223
S. pneumoniae D39V [6], first compound 17.14 µg/mL | 0.941 | 0.98 | 0.961
S. pneumoniae D39V [6], first compound 20 µg/mL | – | ≥ 1 | 0.987
S. pneumoniae D39V [6], first compound 34.28 µg/mL | 0.948 | 0.992 | 0.967
S. pneumoniae D39V [6], first compound 40 µg/mL | – | 0.997 | ≥ 1

fitness, S. pneumoniae D39V [6], one replicate
Conditions | first compound 20 µg/mL | first compound 40 µg/mL | first compound 68.57 µg/mL | first compound 80 µg/mL
partner 2 µg/mL | ≥ 1 | ≥ 1 | 0.871 | 0.86
partner 4 µg/mL | – | – | 0.973 | –
partner 8 µg/mL | – | – | 0.966 | –
partner 16 µg/mL | 0.918 | 0.931 | – | 0.107

CN(C)C(=O)C(CCN1CCC(O)(c2ccc(Cl)cc2)CC1)(c1ccccc1)c1ccccc1 [Loperamide] + COc1c(N2C[C@@H]3CCCN[C@@H]3C2)c(F)cc2c(=O)c(C(=O)O)cn(C3CC3)c12 [Moxifloxacin]
Conditions | Bliss interaction score
B. subtilis 168 [3] | 0.035
S. aureus DSM 20231 [2] | 0.13
S. aureus Newman | 0.0359
S. pneumoniae D39V [1] | 0.0769

Conditions | fitness
B. subtilis 168 [5], first compound 25 µg/mL, partner 0.0312 µg/mL | 0.0408
B. subtilis 168 [5], first compound 25 µg/mL, partner 0.0625 µg/mL | 0.0524
B. subtilis 168 [5], first compound 25 µg/mL, partner 0.125 µg/mL | 0.0382
B. subtilis 168 [5], first compound 25 µg/mL, partner 2 µg/mL | 0.0259
B. subtilis 168 [5], first compound 25 µg/mL, partner 4 µg/mL | 0.0205
B. subtilis 168 [5], first compound 25 µg/mL, partner 8 µg/mL | 0.017
B. subtilis 168 [5], first compound 50 µg/mL, partner 0.0312 µg/mL | 0.0458
B. subtilis 168 [5], first compound 50 µg/mL, partner 0.0625 µg/mL | 0.0525
B. subtilis 168 [5], first compound 50 µg/mL, partner 0.125 µg/mL | 0.068
B. subtilis 168 [5], first compound 50 µg/mL, partner 2 µg/mL | 0.0274
B. subtilis 168 [5], first compound 50 µg/mL, partner 4 µg/mL | 0.0294
B. subtilis 168 [5], first compound 50 µg/mL, partner 8 µg/mL | 0.0145
B. subtilis 168 [5], first compound 100 µg/mL, partner 0.0312 µg/mL | 0.0464
B. subtilis 168 [5], first compound 100 µg/mL, partner 0.0625 µg/mL | 0.0527
B. subtilis 168 [5], first compound 100 µg/mL, partner 0.125 µg/mL | 0.0413
B. subtilis 168 [5], first compound 100 µg/mL, partner 2 µg/mL | 0.0272
B. subtilis 168 [5], first compound 100 µg/mL, partner 4 µg/mL | 0.0176
B. subtilis 168 [5], first compound 100 µg/mL, partner 8 µg/mL | 0.0179
S. pneumoniae D39V [6], first compound 17.14 µg/mL, partner 0.0037 µg/mL | 0.897
S. pneumoniae D39V [6], first compound 17.14 µg/mL, partner 0.0075 µg/mL | 0.952
S. pneumoniae D39V [6], first compound 17.14 µg/mL, partner 0.015 µg/mL | 0.85
S. pneumoniae D39V [6], first compound 20 µg/mL, partner 0.005 µg/mL | ≥ 1
S. pneumoniae D39V [6], first compound 20 µg/mL, partner 0.01 µg/mL | ≥ 1
S. pneumoniae D39V [6], first compound 20 µg/mL, partner 0.02 µg/mL | ≥ 1
S. pneumoniae D39V [6], first compound 34.28 µg/mL, partner 0.0037 µg/mL | 0.822
S. pneumoniae D39V [6], first compound 34.28 µg/mL, partner 0.0075 µg/mL | 0.905
S. pneumoniae D39V [6], first compound 34.28 µg/mL, partner 0.015 µg/mL | 0.836
S. pneumoniae D39V [6], first compound 40 µg/mL, partner 0.005 µg/mL | ≥ 1
S. pneumoniae D39V [6], first compound 40 µg/mL, partner 0.01 µg/mL | ≥ 1
S. pneumoniae D39V [6], first compound 40 µg/mL, partner 0.02 µg/mL | ≥ 1

S. pneumoniae D39V [6], first compound 68.57 µg/mL, one replicate
Conditions | fitness
partner 0.0037 µg/mL | 0.729
partner 0.0075 µg/mL | 0.796
partner 0.015 µg/mL | 0.779

CN(C)C(=O)C(CCN1CCC(O)(c2ccc(Cl)cc2)CC1)(c1ccccc1)c1ccccc1 [Loperamide] + COc1ccc(C[C@H](N)C(=O)N[C@H]2[C@@H](O)[C@H](n3cnc4c(N(C)C)ncnc43)O[C@@H]2CO)cc1 [Puromycin]
Conditions | Bliss interaction score
B. subtilis 168 [3] | -0.121
S. aureus DSM 20231 [2] | -0.192
S. aureus Newman | -0.0477
S. pneumoniae D39V [1] | 0.0779

fitness
Conditions | partner 0.39 µg/mL | partner 0.78 µg/mL | partner 1 µg/mL | partner 1.56 µg/mL | partner 2 µg/mL | partner 4 µg/mL
B. subtilis 168 [5], first compound 25 µg/mL | 0.82 | 0.767 | – | 0.718 | – | –
B. subtilis 168 [5], first compound 50 µg/mL | 0.0429 | 0.038 | – | 0.0393 | – | –
B. subtilis 168 [5], first compound 100 µg/mL | 0.0261 | 0.0107 | – | 0.0233 | – | –
S. pneumoniae D39V [6], first compound 17.14 µg/mL | – | – | 0.999 | – | 0.965 | 0.872
S. pneumoniae D39V [6], first compound 34.28 µg/mL | – | – | 0.988 | – | 0.952 | 0.813

fitness, S. pneumoniae D39V [6], one replicate
Conditions | first compound 20 µg/mL | first compound 40 µg/mL | first compound 68.57 µg/mL | first compound 80 µg/mL
partner 1 µg/mL | 0.951 | 0.899 | 0.997 | 0.159
partner 2 µg/mL | 0.951 | 0.93 | 0.956 | 0.129
partner 4 µg/mL | 0.835 | 0.828 | 0.908 | 0.0785
